Source: ChEMBL document CHEMBL3259772, “Identification and characterization of small molecule modulators of the Epstein-Barr virus-induced gene 2 (EBI2) receptor” (J Med Chem, 2014)

How the values were obtained:
Type in all cases: ADME, organism-based
[1] = test system: Mus musculus; test: Total blood clearance in C57BL/6 mouse at 1 mg/kg, iv administered as cassette dose; set-up: dose 1 mg/kg, route intravenous; settings: in vivo
[2] = Terminal blood half life in C57BL/6 mouse at 1 mg/kg, iv administered as cassette dose; set-up: dose 1 mg/kg, route intravenous; settings: read-out: beta t1/2 (converted)
[3] = Apparent volume of distribution at steady state in C57BL/6 mouse at 1 mg/kg, iv administered as cassette dose; set-up: dose 1 mg/kg, route intravenous; settings: in vivo, read-out: Vdss(app)
[4] = AUC (infinity) in C57BL/6 mouse at 1 mg/kg, iv administered as cassette dose; set-up: time infinity, dose 1 mg/kg, route intravenous; settings: plasma
[5] = Tmax in C57BL/6 mouse at 5 mg/kg, po administered as cassette dose; set-up: dose 5 mg/kg, route oral; settings: in vivo
[6] = Cmax in C57BL/6 mouse at 5 mg/kg, po administered as cassette dose; set-up: dose 5 mg/kg, route oral; settings: in vivo
[7] = AUC (infinity) in C57BL/6 mouse at 5 mg/kg, po administered as cassette dose; set-up: time infinity, dose 5 mg/kg, route oral; settings: plasma
[8] = Oral bioavailability in C57BL/6 mouse at 5 mg/kg administered as cassette dose; settings: in vivo

Row | Structure (SMILES) | CL [1] [µL/min/mg] | half-life [2] [h] | Vd [3] [L/kg] | AUC(0-inf) [4] [µM·h] | Tmax [5] [h] | Cmax [6] [nM] | AUC(0-inf) [7] [µM·h] | bioavailability [8] [%]
1 | COc1ccc(/C=C/C(=O)N2CCN(C(=O)c3ccc(OC)cc3)CC2)cc1 | 52 | 0.2 | 0.8 | 0.841 |  |  |  | 
2 | COc1ccc(C(=O)N2CCN(C(=O)/C=C/c3ccc(Br)cc3)CC2)cc1 | 16 | 1.1 | 1.4 | 2.44 | 1 | 835 | 3.61 | 49
